Results taken from patent publication US11472808B2, “Substituted pyrrolo[1,2-c]pyrimidines as hepatitis B antiviral agents” (Enanta Pharmaceuticals, Inc., priority 2019, dated 2022).

What follows are compounds tested on HBV (assay: HepAD38 anti-HBV assay: reduction of viral product accumulation (virion DNA qPCR, HBsAg/HBeAg ELISA)). Details: Hepatitis B virus, 120 h; HepAD38 cells; concentration reducing viral product accumulation by 50% relative to no drug controls; harvest five days after compound addition; read-out: HepAD38 EC50.
Format: cell-based
Procedure: Methods: HepAD38 cells are maintained as previously reported (Ladner et al, Antimicrob. Agents Chemother. 1997, […], 1715). Briefly, cells are passaged upon attaining confluency in DMEM/F12 media in the presence of 10% FBS, Penn/Strep, 250 μg/mL G418, and 1 μg/ml tetracycline. Novel compounds are screened by first washing cells three times with PBS to remove tetracycline, and plating in 96 well plates at 35,000 cells/well. Compounds dissolved in DMSO are then diluted 1:200 into wells containing cells. Five days after compound addition, material is harvested for analysis. For an extended 8 day analysis, cells are plated and treated as described above, but media and compound are refreshed on d2 and d5 post initial treatment.
On harvest day, virion DNA is obtained by lysing with Sidestep Lysis and Stabilization Buffer and then quantified via quantitative real time PCR. Commercially available ELISA kits are used to quantitate the viral proteins HBsAg (Alpco) or HbeAg (US Biological) by following the manufacturer's recommended protocol after diluting samples to match the linear range of their respective assays. Irrespective of readout, compound concentrations that reduce viral product accumulation in the cell lysates or supernatants by 50% relative to no drug controls (EC50) are reported; EC50 ranges are as follows: A<0.1 μM; B 0.1-0.4 μM; C>0.4 μM.

`COC(=O)c1cc(S(=O)(=O)N[C@H]2CC3=C(c4ccn(C(F)F)n4)[C@H](c4ccc(F)cc4Cl)N=C(c4nccs4)N3C2)c(C)cc1F` [Example 26] and `Cc1cc(F)c(C(=O)O)cc1S(=O)(=O)N[C@H]1CC2=C(c3ccn(C(F)F)n3)[C@H](c3ccc(F)cc3Cl)N=C(c3nccs3)N2C1` [Example 29] cannot be ordered by EC50: > 400 nM for the first, > 400 nM for the second.

`O=C(O)c1ccc(Cl)c(S(=O)(=O)N[C@H]2CC3=C(c4ccn(C(F)F)n4)[C@H](c4ccc(F)cc4Cl)N=C(c4nccs4)N3C2)c1` [Example 27] and `Cc1ccc(C(=O)O)cc1S(=O)(=O)N[C@H]1CC2=C(c3ccn(C(F)F)n3)[C@H](c3ccc(F)cc3Cl)N=C(c3nccs3)N2C1` [Example 28] fall in the same range of EC50: 100 to 400 nM for the first, 100 to 400 nM for the second.

`CCOC(=O)Cc1ccccc1S(=O)(=O)N[C@H]1CC2=C(c3ccn(C(F)F)n3)[C@H](c3ccc(F)cc3Cl)N=C(c3nccs3)N2C1` [Example 30] and `O=C(O)Cc1ccccc1S(=O)(=O)N[C@H]1CC2=C(c3ccn(C(F)F)n3)[C@H](c3ccc(F)cc3Cl)N=C(c3nccs3)N2C1` [Example 32] fall in the same range of EC50: 100 to 400 nM for the first, 100 to 400 nM for the second.

Compared with `COC(=O)Cc1cccc(S(=O)(=O)N[C@H]2CC3=C(c4ccn(C(F)F)n4)[C@H](c4ccc(F)cc4Cl)N=C(c4nccs4)N3C2)c1` [Example 31], `O=C(O)Cc1cccc(S(=O)(=O)N[C@H]2CC3=C(c4ccn(C(F)F)n4)[C@H](c4ccc(F)cc4Cl)N=C(c4nccs4)N3C2)c1` [Example 33] is higher in EC50: < 100 nM for the first, 100 to 400 nM for the second.

`COC(=O)c1ccc(CS(=O)(=O)N[C@H]2CC3=C(c4ccn(C(F)F)n4)[C@H](c4ccc(F)cc4Cl)N=C(c4nccs4)N3C2)cc1` [Example 34] and `O=C(O)c1ccc(CS(=O)(=O)N[C@H]2CC3=C(c4ccn(C(F)F)n4)[C@H](c4ccc(F)cc4Cl)N=C(c4nccs4)N3C2)cc1` [Example 36] cannot be ordered by EC50: < 100 nM for the first, < 100 nM for the second.

Going from `COC(=O)Cc1ccc(S(=O)(=O)N[C@H]2CC3=C(c4ccn(C(F)F)n4)[C@H](c4ccc(F)cc4Cl)N=C(c4nccs4)N3C2)cc1` [Example 35] to `O=C(O)Cc1ccc(S(=O)(=O)N[C@H]2CC3=C(c4ccn(C(F)F)n4)[C@H](c4ccc(F)cc4Cl)N=C(c4nccs4)N3C2)cc1` [Example 37], the EC50 rises from < 100 nM to > 400 nM. The first is the more potent here.

`CCOC(=O)Cn1cc(S(=O)(=O)N[C@H]2CC3=C(c4ccn(C(F)F)n4)[C@H](c4ccc(F)cc4Cl)N=C(c4nccs4)N3C2)cn1` [Example 38] and `CCOC(=O)CN([C@H]1CC2=C(c3ccn(C(F)F)n3)[C@H](c3ccc(F)cc3Cl)N=C(c3nccs3)N2C1)S(=O)(=O)c1cnn(CC(=O)OCC)c1` [Example 39] cannot be ordered by EC50: > 400 nM for the first, > 400 nM for the second.

`O=C1NCCN1[C@H]1CC2=C(c3ccn(C(F)F)n3)[C@H](c3ccc(F)cc3Cl)N=C(c3nccs3)N2C1` [Example 40] and `C#CCN1CCN([C@H]2CC3=C(c4ccn(C(F)F)n4)[C@H](c4ccc(F)cc4Cl)N=C(c4nccs4)N3C2)C1=O` [Example 41] fall in the same range of EC50: 100 to 400 nM for the first, 100 to 400 nM for the second.

`COC(=O)c1ccc(C#CCN2CCN([C@H]3CC4=C(c5ccn(C(F)F)n5)[C@H](c5ccc(F)cc5Cl)N=C(c5nccs5)N4C3)C2=O)cc1` [Example 42] and `O=C(O)c1ccc(C#CCN2CCN([C@H]3CC4=C(c5ccn(C(F)F)n5)[C@H](c5ccc(F)cc5Cl)N=C(c5nccs5)N4C3)C2=O)cc1` [Example 43] cannot be ordered by EC50: > 400 nM for the first, > 400 nM for the second.

`Cc1ccc(S(=O)(=O)N2CCN([C@H]3CC4=C(c5ccn(C(F)F)n5)[C@H](c5ccc(F)cc5Cl)N=C(c5nccs5)N4C3)CC2)cc1` [Example 44] and `O=C(O)c1ccc(NC(=O)N2CCN([C@H]3CC4=C(c5ccn(C(F)F)n5)[C@H](c5ccc(F)cc5Cl)N=C(c5nccs5)N4C3)CC2)cc1` [Example 47] cannot be ordered by EC50: > 400 nM for the first, > 400 nM for the second.

`Fc1ccc([C@@H]2N=C(c3nccs3)N3C[C@@H](N4CCNCC4)CC3=C2c2ccn(C(F)F)n2)c(Cl)c1` [Example 45] and `O=C(Nc1ccccc1)N1CCN([C@H]2CC3=C(c4ccn(C(F)F)n4)[C@H](c4ccc(F)cc4Cl)N=C(c4nccs4)N3C2)CC1` [Example 49] cannot be ordered by EC50: > 400 nM for the first, > 400 nM for the second.

`COC(=O)c1ccc(NC(=O)N2CCN([C@H]3CC4=C(c5ccn(C(F)F)n5)[C@H](c5ccc(F)cc5Cl)N=C(c5nccs5)N4C3)CC2)cc1` [Example 46] and `O=C1N(CC#Cc2ccccc2)CCN1[C@H]1CC2=C(c3ccn(C(F)F)n3)[C@H](c3ccc(F)cc3Cl)N=C(c3nccs3)N2C1` [Example 48] cannot be ordered by EC50: > 400 nM for the first, > 400 nM for the second.

First: C=CS(=O)(=O)N[C@H]1CC2=C(c3ccn(C(F)F)n3)[C@H](c3ccc(F)cc3Cl)N=C(c3nccs3)N2C1 [Example 50]
Second: CNCCS(=O)(=O)N[C@H]1CC2=C(c3ccn(C(F)F)n3)[C@H](c3ccc(F)cc3Cl)N=C(c3nccs3)N2C1 [Example 52]
The EC50 of the first is higher: 100 to 400 nM for the first, < 100 nM for the second.

Going from `C=CS(=O)(=O)N([C@H]1CC2=C(c3ccn(C(F)F)n3)[C@H](c3ccc(F)cc3Cl)N=C(c3nccs3)N2C1)S(=O)(=O)C=C` [Example 51] to `CN(C)CCS(=O)(=O)N[C@H]1CC2=C(c3ccn(C(F)F)n3)[C@H](c3ccc(F)cc3Cl)N=C(c3nccs3)N2C1` [Example 53], the EC50 falls from > 400 nM to < 100 nM.

`O=S(=O)(CCN1CCCC1)N[C@H]1CC2=C(c3ccn(C(F)F)n3)[C@H](c3ccc(F)cc3Cl)N=C(c3nccs3)N2C1` [Example 54] and `O=S(=O)(CCN1CCCCC1)N[C@H]1CC2=C(c3ccn(C(F)F)n3)[C@H](c3ccc(F)cc3Cl)N=C(c3nccs3)N2C1` [Example 55] fall in the same range of EC50: 100 to 400 nM for the first, 100 to 400 nM for the second.

Compared with `O=S(=O)(CCN1CCOCC1)N[C@H]1CC2=C(c3ccn(C(F)F)n3)[C@H](c3ccc(F)cc3Cl)N=C(c3nccs3)N2C1` [Example 56], `O=S(=O)(CCN1CCC(O)CC1)N[C@H]1CC2=C(c3ccn(C(F)F)n3)[C@H](c3ccc(F)cc3Cl)N=C(c3nccs3)N2C1` [Example 57] is lower in EC50: 100 to 400 nM for the first, < 100 nM for the second. The second is the more potent here.

`CCOC(=O)C1CCN(CCS(=O)(=O)N[C@H]2CC3=C(c4ccn(C(F)F)n4)[C@H](c4ccc(F)cc4Cl)N=C(c4nccs4)N3C2)CC1` [Example 58] and `O=C(O)C1CCN(CCS(=O)(=O)N[C@H]2CC3=C(c4ccn(C(F)F)n4)[C@H](c4ccc(F)cc4Cl)N=C(c4nccs4)N3C2)CC1` [Example 59] fall in the same range of EC50: 100 to 400 nM for the first, 100 to 400 nM for the second.

`COC(=O)C1CCCN1CCS(=O)(=O)N[C@H]1CC2=C(c3ccn(C(F)F)n3)[C@H](c3ccc(F)cc3Cl)N=C(c3nccs3)N2C1` (some centres unmarked) [Example 60] and `O=C(O)C1CCCN1CCS(=O)(=O)N[C@H]1CC2=C(c3ccn(C(F)F)n3)[C@H](c3ccc(F)cc3Cl)N=C(c3nccs3)N2C1` (some centres unmarked) [Example 65] cannot be ordered by EC50: > 400 nM for the first, > 400 nM for the second.

Compared with `COC(=O)CC1CCN(CCS(=O)(=O)N[C@H]2CC3=C(c4ccn(C(F)F)n4)[C@H](c4ccc(F)cc4Cl)N=C(c4nccs4)N3C2)CC1` [Example 61], `O=C(O)CC1CCN(CCS(=O)(=O)N[C@H]2CC3=C(c4ccn(C(F)F)n4)[C@H](c4ccc(F)cc4Cl)N=C(c4nccs4)N3C2)CC1` [Example 63] is higher in EC50: < 100 nM for the first, > 400 nM for the second. The first is the more potent here.

Compared with `COC(=O)CC1CCN(C(=O)CC2CCN(CCS(=O)(=O)N[C@H]3CC4=C(c5ccn(C(F)F)n5)[C@H](c5ccc(F)cc5Cl)N=C(c5nccs5)N4C3)CC2)CC1` [Example 62], `O=C(O)CC1CCN(C(=O)CC2CCN(CCS(=O)(=O)N[C@H]3CC4=C(c5ccn(C(F)F)n5)[C@H](c5ccc(F)cc5Cl)N=C(c5nccs5)N4C3)CC2)CC1` [Example 64] is higher in EC50: < 100 nM for the first, > 400 nM for the second.

For `COC(=O)C1CCCN(CCS(=O)(=O)N[C@H]2CC3=C(c4ccn(C(F)F)n4)[C@H](c4ccc(F)cc4Cl)N=C(c4nccs4)N3C2)C1` (some centres unmarked) [Example 66], the EC50 was > 400 nM.
